The text below walks through data of patent publication US11039997B2, “Cosmetic, dermatic, protective compositions comprising phospholipids, lecithins with peptides and at least one acetylating compound” (priority 2005, dated 2021).

Test [1] concerns the target T1, paf receptors of formaldehyde-treated platelets (Homo sapiens, UniProt P25105).
T1 construct: endogenous in cells; host or cells: washed platelets fixed with 1% formaldehyde for 30 min
Kind of test: Binding of [3H]alkyl-paf to formaldehyde-fixed platelets (FIGS. 6 and 7). Conditions: 30 min; for inhibition of bound [3H]alkyl-paf to stiffened platelets: FIG. 7, [3H]alkyl-paf 0.65 nM, 20° C., n=4. The method, then:
An extract of whole blood, namely “biological paf” replaces [^3H]alkyl-paf out of the binding and bind to similar alkyl receptors. This competitive inhibition is paralleled with similar effects of synthetic paf and with Ginkgoloides wherein WEB 2086 is used here as the known guiding substance for chlorobenzo(dia)zepines.
“Biological paf” is used here for the first time as non-separated ethanol extract of whole blood (without HPLC). This dry extract is diluted before it is quantified using aggregation of rabbit platelets in the presence of aspirin and CP/CPK. The novel methods allow for the first time testings without albumin so that alkyl ligands with lower cell affinity compared to albumin can bind in a detectable manner. For example, alkyl lipids without the choline group (alkyl-LPA) bind otherwise in deeper regions of the membranes of untreated cells and/or are rapidly incorporated into free albumin. In addition, the method is independent from calcium so that also calcium-independent alkyl ligands can be inhibited here (e.g. lyso paf). The clinical success against alkyl ligands is thus supported and can be carried out by skilled persons.
The FIGS. 5 to 7 thus show the novel screening procedure solves a novel technical problem, namely the variety of damaging alkyl lipids. The quantification is easier using fixed cells as the difficult acetylation step of alkyl lipids is removed which is required for calcium dependent quantification methods. Using fixed cells, cell lines also labelled antibodies and/or soluble transport-binding proteins can be tested and produced.
(§1) FIGS. 5 to 7 investigated for the first time binding of [^3H]alkyl-paf or [^3H]acetyl group after treatment with formaldehyde (1%, 30 min) comparing different temperatures, indicated concentrations and said Ginkgoloides. The allosteric binding of [^3H]alkyl groups was reached only at 20° C. while [^3H]acetyl groups bound at 4° C. excluding allosteric effects.
Platelets were treated with formaldehyde (1%, 30 min, n=6). Values are expressed as bound [^3H]alkyl-paf to […]. […]

In test [2] the test system is washed aspirinated platelets. The experiment in a line: Binding of [3H]alkyl-paf / [3H]alkyl-lyso paf to washed aspirinated platelets and formation of AAGPC, LA-paf (FIG. 2). Format: cell-based, human. Conditions: FIG. 2C; normolipidemic platelets, [3H]-alkyl-lyso paf 0.065 nM, 40 nM antagonist, 0.25% BSA. Here is the method: These women with “OMIH”-syndrome show overweight (aged 34±11 years, BMI: […]), raised LDL (167±15 mg/dl, HDL: 76±41 mg/dl) and triglyceride levels (206±27 mg/dl) borderline hypertension (125±13/88±10 mmHg) and disturbed glucose tolerance (1 h: 170±61 mg/dl).
Ginkgoloides with free albumin (BSA) inhibited here the binding of [^3H]alkyl-paf to “OMIH”-platelets after three washes (FIG. 2 A+B). […] Normolipidemic platelets do nearly not incorporate [^3H]alkyl-paf or [^3H]alkyl-lyso paf and form nearly no AAGPC and LA-paf in the presence of Ginkgoloides and free albumin (FIG. 2C).
AAGPC and LA-paf are chemically alkyl-acyl-sn-glycero-phosphocholines. […] Values are fmol per 10^8 platelets and are means±1 S.D. from three different experiments as described (R. Korth et al. Chem. Phys. Lipids 70(1994), 109-119).

Test [3] concerns metabolic syndrome mediated by LA-paf. Conditions: Wu et al. J. Int. Med. 246, 1999; cited from earlier work.
Test [4] concerns the target T1, paf receptors of formaldehyde-treated platelets. The experiment in a line: Binding of [3H]acetyl paf to formaldehyde-fixed platelets at 4° C. (FIG. 5). The following applies: unlabeled paf 50 nM, [3H]acetyl paf 0.65 nM or 0.065 nM. Here is the method:
(FIG. 5D versus 5C). The allosteric alkyl effects are inhibited by stiffening of the membrane so that the scavenger-like allosteric configuration change of cells is shown as mentioned before. In contrast, the [^3H]acetyl group of paf binds at 4° C. to fixed cells treated prior to the last wash with formaldehyde to be subsequently cooled and stiffened (1%, 30 min, A+B). The acetyl group binds and covers paf receptors without allosteric upregulation so that acetylating compounds are using this effect in accordance with the invention.
as §1
Unlabeled paf (50 nM) competed showing specific binding of [^3H]acetyl paf. […] Next, [^3H]alkyl-paf failed binding to stiffened platelets at 4° C. showing moderate specific binding only at 20° C. (C: 0.65 nM, 30 min, 20° C.). […] Values are expressed as bound labelled ligands to 10^8 platelets. Platelets were separated with vacuum filtration and means±1 S.D. are from three experiments.

Another test relates to human neutrophils. Kind of test: Formation of labeled AAGPC+LA-paf by neutrophils (FIG. 4). Conditions: 0.25% BSA. Format: cell-based. Here is the method: The non-differentiated washed blood leukocytes incorporate here [^3H]alkyl-paf with intermediate of [^3H]alkyl-lyso paf and form alkyl lipids (AAGPC+LA paf) in a saturated manner (A: 0.65 nM vs. B: 6.5 nM) wherein unlabelled paf fails to replace (B, 5 nM). Thus, at least one non-specific transport protein is indicated (e.g. acetylhydrolase) on undifferentiated cells. The less differentiated cells are invented here as a model for monocytes, endothelial cells, glia cells, cartilage cells, adipocytes, endogenous stem cells etc. The acetylhydrolases on plasma membranes of leukocytes remove alkyl lipids and these cells are then pre-activated, differentiated and ready to emigrate. Non-specific antagonists e.g. free albumin protect against alkyl ligands and compete with cells for binding of alkyl lipids. The fatty decline of cells in the entire organisms is clinically healed here. […]
Washed intact cells were incubated with normal or excess concentrations of [^3H]-alkyl-paf forming then the stable amount of AAGPC & LA (A: 0.65 nM or B: 6.5 nM). […] Values are expressed as percent of added label (2.5×10^6 cells/500μl, 0.25% BSA, n=3, see R.-M. Korth, Int. Arch. All. Imm. 113, p 460-464, 1997). […]

The next test concerns intact human platelets. Kind of test: Lipoprotein-triggered catabolism of [3H]alkyl-paf and formation of AAGPC and LA-paf by intact platelets (FIG. 3). Format: cell-based. Conditions: FIG. 3 C+D; [3H]alkyl-paf 0.65 nM; apo B 0.1 mg/ml, VLDL 80 μg/ml. The method, then: Only LDL but not ApoB and not VLDL overcome the protection by albumin (FIG. 3E versus 3D). […] In the presence (A+C) or absence (B) of washed platelets nearly no AAGPC with derivatives and products is formed. The acetylhydrolases form lyso paf and LDL, of apoB and VLDL also form lyso paf whereby the uptake of lyso paf is triggered by LDL.
[^3H]alkyl-lyso paf was stable in the albumin buffer as well (B: 0.25% BSA, 30 min, 20° C.). […] Overall, purified LDL-particles rather than isolated apoB trigger uptake and formation of AAGPC and/or LA-paf. Values are expressed as percent of added label bound to platelets. Cells were separated using vacuum filtration as described (R. Korth et al. Chem. Phys. Lipids 70, 109-119, 1994). Values were expressed as percent of added label. Values are means±1.S.D. of three different experiments.

T1 sequence (P25105 whole entry): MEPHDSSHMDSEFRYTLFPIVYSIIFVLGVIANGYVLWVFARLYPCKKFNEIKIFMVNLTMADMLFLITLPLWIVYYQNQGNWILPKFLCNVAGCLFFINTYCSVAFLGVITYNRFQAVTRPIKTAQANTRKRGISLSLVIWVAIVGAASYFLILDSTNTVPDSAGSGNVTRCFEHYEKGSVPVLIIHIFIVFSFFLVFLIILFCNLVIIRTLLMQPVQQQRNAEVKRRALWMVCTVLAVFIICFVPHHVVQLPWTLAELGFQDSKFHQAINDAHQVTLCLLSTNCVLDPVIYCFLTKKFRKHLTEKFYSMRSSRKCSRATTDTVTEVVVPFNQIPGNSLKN

Regarding `CC1C(=O)OC2C(O)C34C5CC(C(C)(C)C)C36C(OC(=O)C6O)OC4(C(=O)O5)C12O` (stereo not drawn) [BN 52021], in test [1] (FIG. 6, platelets treated with formaldehyde 1%, 30 min 20° C.), the “inhibition of bound [3H]alkyl-paf” value is reported as “concentration-dependent inhibition”. On to `Cc1nnc2n1-c1sc(CCC(=O)N3CCOCC3)cc1C(c1ccccc1Cl)=NC2` [WEB 2086], for which the “inhibition of bound [3H]alkyl-paf to stiffened platelets” value in test [1] is recorded as “inhibited”. The “formation of cellular metabolites (AAGPC, LA-paf) from [3H]-alkyl-lyso paf” value in test [2] was “without relevant formation of indicated cellular metabolites”. Also, the “treatment of metabolic syndrome with thickening of the intima and borderline hypertension” value in test [3] was “successfully treated”. Consider `CCCCCCCCCCCCCCCCOC[C@H](COP(=O)([O-])OCC[N+](C)(C)C)OC(C)=O` [synthetic paf], for which, in test [4], the “competition with [3H]acetyl paf binding” value is “competed”. In test [1], the “inhibition of bound [3H]alkyl-paf to stiffened platelets” value is reported as “inhibited at low concentrations”. Further, in the test with human neutrophils (unlabeled paf 5 nM, [3H]-alkyl-paf 0.65 nM or 6.5 nM, n=3), the “competition with formation of AAGPC/LA-paf” value is given as “did not compete”. On to ApoB: isolated apo B (Sigma Chemical), for which the “formation of lyso paf and cellular uptake” value with intact human platelets was “form lyso paf without cellular uptake”. Consider “Purified albumin: free, delipidated albumin (BSA), representative non-specific antagonist”, for which the “protection of intact cells as non-specific antagonist” value in the test with human neutrophils is reported as “protected”.
